Test results from ChEMBL document CHEMBL1201862, “PubChem BioAssay data set” (2004).
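Five concentrations, 48 hours, 96-well plates. GI50 = concentration required for 50% inhibition of growth.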 Calls of active or inactive are those of the source. Rule as the data show it: active = GI50 up to about 1.1 µM and inactive = higher.

Columns and labels:
Assay in all cases: inhibition of tumour cell growth, NCI panel, 48 h
OVCAR-3 = test system: OVCAR-3
SR = test system: SR
CCRF-CEM = test system: CCRF-CEM
HOP-92 = test system: HOP-92
NCI-H460 = test system: NCI-H460
LOX IMVI = test system: LOX IMVI
Malme-3M = test system: Malme-3M
SF-539 = test system: SF-539
SNB-75 = test system: SNB-75
SK-MEL-2 = test system: SK-MEL-2
PC-3 = test system: PC-3
HCT-116 = test system: HCT-116
SF-268 = test system: SF-268
HCT-15 = test system: HCT-15
HL-60 = test system: HL-60
SF-295 = test system: SF-295
SK-MEL-5 = test system: SK-MEL-5
UO-31 = test system: UO-31
OVCAR-8 = test system: OVCAR-8
OVCAR-5 = test system: OVCAR-5

Compound | GI50 (OVCAR-3) | GI50 (SR) | GI50 (CCRF-CEM) | GI50 (HOP-92) | GI50 (NCI-H460) | GI50 (LOX IMVI) | GI50 (Malme-3M) | GI50 (SF-539) | GI50 (SNB-75) | GI50 (SK-MEL-2) | GI50 (PC-3) | GI50 (HCT-116) | GI50 (SF-268) | GI50 (HCT-15) | GI50 (HL-60) | GI50 (SF-295) | GI50 (SK-MEL-5) | GI50 (UO-31) | GI50 (OVCAR-8) | GI50 (OVCAR-5)
Cc1cc(Nc2ccc(/N=N/c3ccc(O)c4ncccc34)cc2)nc(C)n1 | 7.76 µM (inactive) | 6.34 µM (inactive) | 2.75 µM (inactive) | 9.75 µM (inactive) | 6.93 µM (inactive) | 6.52 µM (inactive) | 18.6 µM (inactive) | 3.99 µM (inactive) | 9.35 µM (inactive) | 13.8 µM (inactive) | 14.4 µM (inactive) | 8.93 µM (inactive) | 14.6 µM (inactive) | 4.37 µM | 3.97 µM (inactive) | 18.6 µM (inactive) | 10.8 µM (inactive) | 11 µM (inactive) | 6.61 µM (inactive) | 35.2 µM (inactive)
COC(=O)CCC(=O)c1ccc2c(c1)CC1(C2)Cc2ccc3c(c2C1)CCCC3=O (stereo not given) | 10.1 µM (inactive) | 0.297 µM (active) | 1.78 µM (inactive) | 15.5 µM (inactive) | 25.2 µM (inactive) | 20 µM (inactive) | 18.4 µM (inactive) | 11.9 µM (inactive) | 86.5 µM (inactive) | 7.31 µM (inactive) | 24.3 µM (inactive) | > 34 µM (inactive) | 33.8 µM (inactive) | 8.15 µM | 3.94 µM (inactive) | 26 µM (inactive) | 10.5 µM (inactive) | 18.2 µM (inactive) | 26.7 µM (inactive) | 40.1 µM (inactive)
O=C(O)c1nc(-c2ccccc2)ncc1-c1nnnn1-c1ccccc1 | > 100 µM (inactive) | > 100 µM (inactive) | > 100 µM (inactive) | > 100 µM (inactive) | > 100 µM (inactive) | > 100 µM (inactive) | > 100 µM (inactive) | > 100 µM (inactive) | > 100 µM (inactive) | > 100 µM (inactive) | > 100 µM (inactive) | > 100 µM (inactive) | > 100 µM (inactive) | > 100 µM | > 100 µM (inactive) | > 100 µM (inactive) | > 100 µM (inactive) | > 100 µM (inactive) | > 100 µM (inactive) | > 100 µM (inactive)
COc1ccc(S(=O)(=O)n2c3c(c4ccccc42)[C@@H]2[C@@H](CCCN2C(=O)C[S+]([O-])c2ccc(C)cc2)[C@H](Cl)C3)cc1 (stereo not given in full) | > 100 µM (inactive) | > 100 µM (inactive) | > 100 µM (inactive) | > 100 µM (inactive) | > 100 µM (inactive) | > 100 µM (inactive) | > 100 µM (inactive) | > 100 µM (inactive) | > 100 µM (inactive) | > 100 µM (inactive) | > 100 µM (inactive) | > 100 µM (inactive) | > 100 µM (inactive) | > 100 µM | 99.8 µM (inactive) | > 100 µM (inactive) | > 100 µM (inactive) | > 100 µM (inactive) | > 100 µM (inactive) | > 100 µM (inactive)
COC(c1ccc(C(C)(C)C)cc1)(c1ccc(C(C)(C)C)cc1)c1cc(C(O)(c2cc(C(OC)(c3ccc(C(C)(C)C)cc3)c3ccc(C(C)(C)C)cc3)c(C)cc2C)c2cc(C(OC)(c3ccc(C(C)(C)C)cc3)c3ccc(C(C)(C)C)cc3)c(C)cc2C)c(C)cc1C | > 100 µM (inactive) | > 100 µM (inactive) | > 100 µM (inactive) | > 100 µM (inactive) | > 100 µM (inactive) | > 100 µM (inactive) | > 100 µM (inactive) | > 100 µM (inactive) | 28.3 µM (inactive) | > 100 µM (inactive) | > 100 µM (inactive) | > 100 µM (inactive) | > 100 µM (inactive) | > 100 µM | > 100 µM (inactive) | > 100 µM (inactive) | > 100 µM (inactive) | > 100 µM (inactive) | > 100 µM (inactive) | > 100 µM (inactive)
CC1ON2CCCC2[C@H]1C(=O)N1C2CC3CCC2(CS1(=O)=O)C3(C)C (stereo not given in full) | > 100 µM (inactive) | > 100 µM (inactive) | > 100 µM (inactive) | > 100 µM (inactive) | > 100 µM (inactive) | > 100 µM (inactive) | > 100 µM (inactive) | > 100 µM (inactive) | > 100 µM (inactive) | > 100 µM (inactive) | > 100 µM (inactive) | > 100 µM (inactive) | > 100 µM (inactive) | > 100 µM | > 100 µM (inactive) | > 100 µM (inactive) | > 100 µM (inactive) | > 100 µM (inactive) | > 100 µM (inactive) | > 100 µM (inactive)
